Common to all, as to format: cell-based
Assay [1] has as its system Staphylococcus aureus ATCC 29213. Nature of the assay: MIC assay. As to conditions: ATCC29213, S. aureus ATCC 29213. The procedure: (§1) The staphylococci were cultured and maintained on Mueller-Hinton Medium (agar and broth) at pH 7.2; cultures were incubated aerobically at 37° C. for 19-20 hours.
(§2) This is a standard international method for quantitatively assessing the antimicrobial activity of a compound in a liquid medium. The method used a sterile 96-well microtitre plate, capable of holding about 200 μl of liquid per well. The wells contained liquid culture medium and ranges of decreasing concentrations of the relevant test compound in doubling dilutions (e.g. 1000, 500, 250, 125 . . . μg/ml, etc. down to 0.49 μg/ml). The culture media were as described above.
(§3) The wells were inoculated with a liquid suspension of freshly grown micro-organism and incubated under the conditions described above. After incubation, the microtitre plate was examined visually (with the aid of a light box) for cloudiness in each well, which would indicate microbial growth. The MIC value was recorded as the lowest concentration of test compound required to inhibit microbial growth, i.e. the lowest concentration for which the liquid in the well remained clear.
(§4) The assays included both negative (culture medium with no micro-organisms) and positive (culture medium plus diluting solvent plus micro-organism) controls.

The test system of assay [2] is Propionibacterium acnes NCTC 737. In words: MIC assay. As to conditions: Cutibacterium acnes, NCTC737; P. acnes NCTC 737. The procedure: (§5) The propionibacteria were cultured and maintained on Wilkins-Chalgren Anaerobe Medium (agar and broth) at pH 6.0; all cultures were incubated anaerobically at 37° C. for 72 hours.
as §2, §3, §4

Assay [3] has the same test system. Nature of the assay: MBC assay. As to conditions: P. acnes NCTC 737; for MBC: Cutibacterium acnes, NCTC737. The procedure:
as §5
(§6) This assay, normally carried out after an MIC assay, determines the minimum concentration of a compound that is lethal to the micro-organism being tested.
(§7) These samples were then individually sub-cultured on antibiotic-free agar medium, under the incubation conditions described above. Following incubation they were examined visually for microbial growth.

Assay [4] concerns Staphylococcus aureus ATCC 29213. Nature of the assay: MBC assay. To be noted: S. aureus ATCC 29213; for MBC: Staphylococcus aureus, ATCC29213. The procedure: as §1, §6, §7
The test system of assay [5] is Streptococcus mutans ATCC 25175. Nature of the assay: MBC assay. How it is done:
(§8) The S. mutans strains were cultured and maintained on Wilkins-Chalgren Anaerobe Medium (agar and broth) at pH 7.0 supplemented with 1 g/L glucose; all cultures were incubated at 37° C. for 48 h in an atmosphere containing 5% CO2.
as §6, §7

The subject of assay [6] is Streptococcus mutans ATCC 35668. Nature of the assay: MBC assay. The procedure: as §8, §6, §7
Assay [7] has as its system Streptococcus sobrinus ATCC 33478. In words: MBC assay. The procedure: as §6, §7
The subject of assay [8] is Gardnerella vaginalis ATCC 14018. Nature of the assay: MBC assay. The procedure: as §6, §7
Assay [9] has as its system Actinomyces naeslundii ATCC 12104. In words: MBC assay. The procedure:
as §6, §7

Assay [10] has as its system Clostridium difficile ATCC 7000057. Nature of the assay: MBC assay. The procedure:
as §6, §7

In assay [11] the test system is Bacillus cereus ATCC 11778. In words: MBC assay. The procedure: as §6, §7
In assay [12] the test system is Listeria monocytogenes ATCC 15313. Nature of the assay: MBC assay. How it is done:
as §6, §7

Assay [13] relates to Clostridium sporogenes ATCC 3584. Nature of the assay: MBC assay. The procedure:
as §6, §7

The test system of assay [14] is Prevotella nigrescens ATCC 33563. In words: MBC assay. The procedure:
as §6, §7

Assay [15] deals with Porphyromonas gingivalis NCTC 11834. In words: MBC assay. The procedure: (§9) The P. gingivalis strains were cultured and maintained on Wilkins-Chalgren Anaerobe Medium (agar and broth) at pH 7.0; all cultures were incubated anaerobically at 37° C. for 5-7 days.
as §6, §7

The test system of assay [16] is Porphyromonas gingivalis ATCC 53978. In words: MBC assay. The procedure:
as §9, §6, §7

In assay [17] the test system is Porphyromonas gingivalis ATCC BAA-308. In words: MBC assay. The procedure:
as §9, §6, §7

Assay [18] relates to Porphyromonas gingivalis NCTC 11834. Nature of the assay: MIC assay. As to conditions: NCTC11834. How it is done: as §9, §2, §3, §4
Assay [19] has as its system Porphyromonas gingivalis ATCC 53978. In words: MIC assay. As to conditions: ATCC53978. How it is done:
as §9, §2, §3, §4

For assay [20], the system named is Porphyromonas gingivalis ATCC BAA-308. In words: MIC assay. As to conditions: ATCCBAA308. The procedure:
as §9, §2, §3, §4

Assay [21] deals with Streptococcus mutans ATCC 25175. In words: MIC assay. To be noted: ATCC25175. The procedure: as §8, §2, §3, §4
Assay [22] relates to Streptococcus mutans ATCC 35668. Nature of the assay: MIC assay. As to conditions: ATCC35668. The procedure:
as §8, §2, §3, §4

Assay [23] relates to Streptococcus sobrinus ATCC 33478. In words: MIC assay. To be noted: ATCC33478. The procedure: as §2, §3, §4
The test system of assay [24] is Corynebacterium mucifaciens ATCC 700355. In words: MIC assay. To be noted: C. mucifaciens ATCC 700355. How it is done:
as §2, §3, §4

The subject of assay [25] is Gardnerella vaginalis ATCC 14018. Nature of the assay: MIC assay. To be noted: ATCC14018. The procedure: as §2, §3, §4
The test system of assay [26] is Enterococcus faecalis ATCC 29212. Nature of the assay: MIC assay. To be noted: E. faecalis ATCC 29212. How it is done: as §2, §3, §4
Assay [27] has as its system Streptococcus pyogenes ATCC 12344. In words: MIC assay. As to conditions: S. pyogenes ATCC 12344. How it is done: as §2, §3, §4
For assay [28], the system named is Actinomyces naeslundii ATCC 12104. In words: MIC assay. As to conditions: ATCC12104, read-out: MIC. The procedure:
as §2, §3, §4

Assay [29] relates to Clostridium difficile ATCC 7000057. Nature of the assay: MIC assay. As to conditions: Clostridioides difficile, ATCC7000057. The procedure: as §2, §3, §4
In assay [30] the test system is Bacillus cereus ATCC 11778. Nature of the assay: MIC assay. To be noted: ATCC11778, read-out: MIC. The procedure:
as §2, §3, §4

Assay [31] has as its system Listeria monocytogenes ATCC 15313. Nature of the assay: MIC assay. As to conditions: ATCC15313, read-out: MIC. The procedure:
as §2, §3, §4

The test system of assay [32] is Clostridium sporogenes ATCC 3584. Nature of the assay: MIC assay. As to conditions: ATCC3584. The procedure:
as §2, §3, §4

Assay [33] concerns Prevotella nigrescens ATCC 33563. Nature of the assay: MIC assay. To be noted: ATCC33563. The procedure:
as §2, §3, §4

In brackets after ≈: the same amount, converted by molar mass.

In the case of `CC(c1cc(C(C)(C)C)cc(C(C)(C)C)c1O)c1cc(C(C)(C)C)cc(C(C)(C)C)c1O` [2,2′-ethylidene-bis(4,6-di-tert-butylphenol), reference compound], the minimum inhibitory concentration (MIC) in assay [1] and in [2] was greater than 250 µg/mL each time. The MBC in assay [3] and in [4] was greater than 250 µg/mL each time.

For the compound `CC(C)(C)c1cc(Cc2cc(C(C)(C)C)c(O)c(C(C)(C)C)c2)cc(C(C)(C)C)c1O` [4,4′-methylenebis(2,6-di-tert-butylphenol), reference compound], the MIC in assay [1] and in [2] was greater than 250 µg/mL throughout. Besides, the MBC in assay [3] and in assay [4] was greater than 250 µg/mL throughout.

As to `CCc1cc(Cc2cc(CC)cc(C(C)(C)C)c2O)c(O)c(C(C)(C)C)c1` [AO 425, 2,2′-methylene-bis(4-ethyl-6-tert-butylphenol)], the minimum inhibitory concentration (MIC) came to 7.8 µg/mL (≈ 21.2 µM) in assay [1]; 7.8 µg/mL (≈ 21.2 µM) in assay [2]; 1.95 µg/mL (≈ 5.29 µM) in assay [18]; 0.98 µg/mL (≈ 2.66 µM) in assay [19]; 1.95 µg/mL (≈ 5.29 µM) in [20]; 15.6 µg/mL (≈ 42.3 µM) in [21]. Moreover, the minimum inhibitory concentration (MIC) in assay [22] is 7.8 µg/mL (≈ 21.2 µM); in [23] it was 31.2 µg/mL (≈ 84.8 µM); in assay [25] it was 15.6 µg/mL (≈ 42.3 µM); in assay [28], 0.98 µg/mL (≈ 2.66 µM); in assay [29], 7.8 µg/mL (≈ 21.2 µM); in assay [30], 1.95 µg/mL (≈ 5.29 µM). Moreover, the results for the MIC in assay [31], in [32] and in assay [33] were 0.98 µg/mL (≈ 2.66 µM), 3.9 µg/mL (≈ 10.6 µM) and 15.6 µg/mL (≈ 42.3 µM), respectively. The “MIC/MBC Ratio” value in [5] was 0.25; in assay [6], less than 0.03; in assay [7], 0.5; in [8] it was 0.5; in assay [9] it was 0.25; in assay [10], 1. Moreover, the “MIC/MBC Ratio” value in assay [11] is given as 0.5; in assay [12], 0.125; in assay [13], 0.5; in [14] it was less than 1; in assay [15] it was 1; in assay [16], 1. In addition, the results for the “MIC/MBC Ratio” value in assay [17], in [3] and in [4] were 0.5, 0.25 and 0.125, respectively. The MBC was 62.5 µg/mL (≈ 170 µM) in assay [5] (ATCC25175); greater than 250 µg/mL in [6] (ATCC35668); 62.5 µg/mL (≈ 170 µM) in assay [7] (ATCC33478); 31.2 µg/mL (≈ 84.8 µM) in [8] (ATCC14018); 3.9 µg/mL (≈ 10.6 µM) in assay [9] (ATCC12104); 7.8 µg/mL (≈ 21.2 µM) in assay [10] (Clostridioides difficile, ATCC7000057). Also, the minimum bactericidal concentration (MBC) in assay [11] (ATCC11778) was 3.9 µg/mL (≈ 10.6 µM); in assay [12] (ATCC15313), 7.8 µg/mL (≈ 21.2 µM); in assay [13] (ATCC3584) it was 7.8 µg/mL (≈ 21.2 µM); in [14] (ATCC33563), greater than 15.6 µg/mL; in [15] (NCTC11834) it was 1.95 µg/mL (≈ 5.29 µM); in [16] (ATCC53978, read-out: MBC), 0.98 µg/mL (≈ 2.66 µM). The MBC in [17] (ATCCBAA308) was determined as 3.9 µg/mL (≈ 10.6 µM); in assay [3], 31.2 µg/mL (≈ 84.8 µM); in assay [4], 62.5 µg/mL (≈ 170 µM). Further, the “activity compared with AO 2246” value in assay [24], in [26] and in [27] was “significantly lower activity” each time.

Source of the values: patent US20100172854A1, “ANTIBACTERIAL FORMULATIONS” (priority 2007, published 2010).
